Experiment: Human HepG2 cell viability assay in 384 well format
Type: toxicity, cell-based
Parameters: dose 125 nL, time 70.5 hour; concentration not given beside the values
Settings: HepG2 cells, read-out: Inhibition

Structure (SMILES) | cytotoxicity at 70.5 h [%]
O=C(CCc1nc2cccnc2[nH]1)NCc1ccncc1 | -19.4
Cn1c(CN2CCCCCC2)cc(=O)c(O)c1CN1CCCC1 | 51.6
Cn1c(C(=O)Nc2nc[nH]n2)cc2ccccc21 | 10.4
O=C(CCCNC(=O)c1cnccn1)Nc1ncc[nH]1 | -27.2
COCCn1ccc2c(C(=O)NCC3CCCO3)cccc21 (stereo unspecified) | -8.34
COCCn1cc(CC(=O)Nc2nc[nH]n2)c2ccccc21 | -6.37
COc1ccc2cc(NC(=O)CCCNc3ncccn3)cnc2c1 | -30.3
Cc1c(C2SCC(=O)Nc3c2c(O)nn3C2CCCCC2)cnn1C (stereo unspecified) | -24.4
O=C1CSC(C(F)(F)F)c2c(O)nn(C3CCCC3)c2N1 (stereo unspecified) | -22.6
CC(C)C1SCC(=O)Nc2c1cnn2-c1ccc(Cl)cc1 (stereo unspecified) | -1.66
O=C(CCN1C(=O)CC2(CCCC2)C1=O)NCCc1nccs1 | -22.6
Cc1nn(C)cc1C1SCC(=O)Nc2c1c(O)nn2C(C)C (stereo unspecified) | -31.1
COCCn1cc(C(=O)NC2CCS(=O)(=O)C2)c2ccccc2c1=O (stereo unspecified) | -14.8
O=C(NCCc1nccs1)[C@H](c1ccccc1)n1cnnn1 | -5.33
Cn1cc(-c2nnc3sc(C4CC4)nn23)cn1 | -4.13
O=C(CCc1nc2cc(Br)cnc2[nH]1)NCCCn1ccnc1 | -17.5
CC(C)(C)C1SCC(=O)Nc2c1c(O)nn2C1CCCC1 (stereo unspecified) | -21.9
COCCn1cc(C(=O)Nc2nc3c(s2)CCC3)c2ccccc21 | 37
Cc1nn2c(-c3snnc3C)nnc2s1 | 27.8
COc1cccc(-c2cc(C(=O)Nc3nc[nH]n3)[nH]n2)c1 | -11.1
Cc1cc(-c2nn3c(C4CC4)nnc3s2)on1 | 12.2
COc1ccc(-c2cc(C(=O)Nc3nc[nH]n3)[nH]n2)cc1 | -12.1
Cn1ccc2c(C(=O)NCCCN3CCOCC3)cccc21 | 11.5

Structure (SMILES) | cytotoxicity at 70.5 h [%]
Cn1cnc2cc(CCC(=O)Nc3nc[nH]n3)ccc21 | -0.94
COc1ccc2c(c1)c(C(=O)Nc1cc(C)n(C)n1)cn2C(C)C | -0.21
COCCn1ccc2c(NC(=O)c3n[nH]c4c3CCCC4)cccc21 | 7.53
COc1ccc2c(ccn2CCC(=O)Nc2nc[nH]n2)c1 | 0.0223
CSCCC(Nc1nc(C)cc(C)n1)C(=O)NC1CC1 (stereo unspecified) | -10.9
O=C(C1CC(=O)N(c2n[nH]c3cc(Br)ccc23)C1)N1CCCC1 (stereo unspecified) | -9.16
Cc1nnsc1-c1nnc2sc(C(C)C)nn12 | 3.22
COCCn1cc(CC(=O)Nc2c(C)nn(C)c2C)c2ccccc21 | -5.58
Cc1ccc(C(=O)NC2CC2)c(-n2cnnn2)c1C | -17.7
COC(=O)c1ccc(C2SCC(=O)Nc3c2cnn3C2CCCC2)cc1 (stereo unspecified) | -12.4
COc1cccc2c1ccn2CC(=O)Nc1nc[nH]n1 | -11.8
Cc1cc(O)cc(=O)n1CCCC(=O)Nc1n[nH]c2cccc(F)c12 | -16.5
CC(C)c1sc(Br)nc1C(=O)NCc1ccncc1 | 23
Cc1ncc(CNC(C)(C)CO)c2cc(C(=O)c3ccc(Br)cc3)oc12 | -14.3
CC(C)OCCCNC(=O)C1CC(=O)N(c2n[nH]c3cccc(F)c23)C1 (stereo unspecified) | -23.7
O=C(CCc1nnc2ccccn2c1=O)NCc1ccco1 | 24.6
CC(C)Cn1cnc2ccc(NC(=O)CCCn3cccn3)cc2c1=O | -2.92
O=C1CSC(c2ccc(O)cc2)c2c(n(C3CCOCC3)[nH]c2=O)N1 (stereo unspecified) | -23.1
COC(=O)CC(c1cccs1)c1oc(C)cc(=O)c1O (stereo unspecified) | -7.87
COc1ccc2c(ccn2CC(=O)Nc2n[nH]c(C(C)C)n2)c1 | -12.1
Cn1cnc2cc(NC(=O)c3n[nH]c4c3CCC4)ccc21 | -3.46
O=C(NCCc1ccccn1)c1n[nH]c2c1CCC2 | -5.6
COCCn1cnc2ccc(NC(=O)c3ccccn3)cc2c1=O | -9.53

Structure (SMILES) | cytotoxicity at 70.5 h [%]
O=C(NC1CCCc2c1[nH]c1ccc(F)cc21)c1n[nH]c2c1CCC2 (stereo unspecified) | 26.4
CC(C)c1sc(Cl)nc1C(=O)N1CCN(c2ccccn2)CC1 | 29.7
COC(=O)CNC(=O)c1nc(Cl)sc1C(C)C | 24.5
CN(C)CCCn1cnc2cc(NC(=O)c3n[nH]c4c3CCC4)ccc21 | -4.15
COc1ccc(N2CCN(C(=O)c3nc(Cl)sc3C(C)C)CC2)cc1 | -18.9
COc1cn(CC(=O)N2CCN(c3ccc(Cl)cc3)CC2)c(C)cc1=O | 23.5
COC(=O)CC(c1cccc(OC(F)F)c1)c1oc(C)cc(=O)c1O (stereo unspecified) | 7.18
COc1ccc2nnc(CCCC(=O)NCCc3ccncc3)n2n1 | -5
Cc1ccc(CN2CC[C@@H]3CN(S(C)(=O)=O)CCO[C@@H]3C2)o1 | 7.49
Cc1cnc(N2C[C@@H]3[C@@H](C(=O)NC(C)C)CCS(=O)(=O)[C@@H]3C2)nc1 | 18
O=C(NC1CCC1)[C@H]1C[C@H]2NCCO[C@@H]2C1 | 4.07
O=C(NC1CCCCC1)N1C[C@@H]2OCCN(C(=O)c3ccco3)[C@@H]2C1 | 0.645
COc1cc(N2CC[C@@H](OC)[C@@H]2Cc2ccccc2)ncn1 | -1.02
O=C(N1CCOCC1)N1C[C@@H]2OCCN(C(=O)c3ccco3)[C@@H]2C1 | -1.55
CC1CC2(CCN(C(=O)c3csnn3)CC2)c2ccccc21 (stereo unspecified) | 0.655
CC(C)Nc1nc2c(c(NC3CC3)n1)CCN(C(=O)C1CCOC1)CC2 (stereo unspecified) | 1.81
CNC(=O)C1CC2(CCN(C(=O)c3csnn3)CC2)c2ccccc21 (stereo unspecified) | 0.474
Cc1cc(CN2C[C@@H]3CN(Cc4ccsc4)CCO[C@@H]3C2)no1 | 7.7
COCCN(C)C(=O)c1nc2c(s1)CCCN2C | 11.8
CC(C)N1CCCc2sc(C(=O)NC3CC3)nc21 | 8.47
COCCN(C)C(=O)c1nc2c(s1)CCCN2c1ncccn1 | -3.25
CC(C)NC(=O)[C@H]1CCS(=O)(=O)[C@@H]2CN(c3ncc(F)cn3)C[C@H]12 | -2.87
O=C(c1cnccn1)N1CC[C@H]2[C@H]1CCN2S(=O)(=O)C1CC1 | -4.25

Structure (SMILES) | cytotoxicity at 70.5 h [%]
COCCO[C@H]1CCN(c2cc(OC)ncn2)[C@H]1Cc1ccncc1 | -1.44
O=C(c1ccnnc1)N1CC[C@H]2[C@H]1CCN2S(=O)(=O)C1CC1 | -0.791
Cn1nccc1-c1nc2c(cc1C(=O)O)CCN(CC1CC1)CC2 | 12.7
CCC1=N[C@@]2(CC[C@@H]3CN(CC4CC4)C[C@@H]32)C(=O)N1 | 7.37
CN(C)C(=O)N1CCCC2(CCN(Cc3ccc(Cl)c(F)c3)C2)C1 (stereo unspecified) | -6.53
O=C(C1CCSCC1)N1CCC2(CC1)COC(COCC1CC1)C2 (stereo unspecified) | -11.3
CCc1ccc(CN2CCC3(CCCN(C(=O)N(C)C)C3)C2)o1 (stereo unspecified) | -10.4
CN(C)C(=O)CNC(=O)c1nc2c(s1)CCCN2Cc1ccccc1 | -2.15
CC(=O)N1CCO[C@@H]2CN(S(=O)(=O)c3ccccc3F)C[C@@H]2C1 | -10.2
O=C1NCCO[C@H]2CN(C(=O)CCc3ccccc3Cl)CC[C@@H]12 | 22.6
COCC1c2nnn(C)c2CCN1C(=O)Cc1ccc2c(c1)OCO2 (stereo unspecified) | 9.52
CC1CN(C)c2ccccc2N(C(=O)c2ccc(=O)n(C)c2)C1 (stereo unspecified) | 6.89
CN(Cc1nccn1C)C1CCN(CCc2ccccn2)CC1 | 0.568
COCCN1CCN(CCS(C)(=O)=O)CC1C (stereo unspecified) | 8.39
N#Cc1cc(F)ccc1CN1CCCC1Cn1cccn1 (stereo unspecified) | -5.11
COc1c(C2CCCN2CC(=O)Nc2cc(C)on2)c(C)nn1C (stereo unspecified) | 12.2
COCCCN1CCN(CCOC)C(C)C1 (stereo unspecified) | 0.867
N#Cc1ccc(CN2CCCCC2Cn2cccn2)cc1 (stereo unspecified) | 16
Cc1ncc(CNCCO)c2cc(C(=O)c3ccc(Br)cc3)oc12 | -18
Cc1ncc(CNCC(C)O)c2cc(C(=O)c3ccc(Br)cc3)oc12 (stereo unspecified) | -16.1
Cn1nnc2c1CCN(Cc1ccco1)C2COCc1ccccc1 (stereo unspecified) | 1.81
CCN(C)c1ncnc2c1CCN(C(=O)NCc1cccnc1)CC2 | 0.595
CN(C)C(=O)NCc1nnn2c1CN(CC1CCOCC1)CCC2 | 0.222

Structure (SMILES) | cytotoxicity at 70.5 h [%]
Cn1cc(CN2CCc3c(nnn3C)C2COCc2ccccc2)cn1 (stereo unspecified) | 32.3
COCCO[C@H]1CCN(c2cc(OC)ncn2)[C@H]1Cc1cccnc1 | 7.05
COc1cc(N2C[C@H]3CN(C(=O)c4cccnc4)C[C@H]3C2)ncn1 | -2.8
Cc1cc(CN2C[C@@H]3CN(C(=O)c4ccco4)CCO[C@@H]3C2)no1 | -5.36
Cc1nc2c(c(NC(C)C)n1)CCN(C(=O)c1cc[nH]n1)CC2 | -8.54
c1ccc(CN2CCOC3(COCCN(c4ncccn4)C3)C2)nc1 (stereo unspecified) | -12.3
CCC1=N[C@@]2(CC[C@@H]3CN(Cc4ccccc4C)C[C@@H]32)C(=O)N1 | -4.43
CN(C)C(=O)NCc1ncn2c1CN(Cc1ccco1)CCC2 | -6.46
Cc1cnnn1Cc1nnn2c1CN(Cc1ccccn1)CCC2 | -7.24
c1ccc(CN2CCCn3nnc(Cn4cccc4)c3C2)nc1 | -7.02
CN1CCO[C@@H]2CN(S(=O)(=O)c3ccccc3)CC[C@@H]2C1 | -5
c1cnc(N2CCOCC3(CN(Cc4ccsc4)CCO3)C2)nc1 (stereo unspecified) | -3.74
Cc1cnnn1Cc1nnn2c1CN(Cc1cccs1)CCC2 | -1.92
CN1CCO[C@@H]2CN(S(=O)(=O)c3ccc(F)cc3)CC[C@@H]2C1 | -1.86
CC1=N[C@@]2(CC[C@@H]3CN(CC(C)C)C[C@@H]32)C(=O)N1C | -5.39
c1coc(CNc2ncc3c(n2)C2(CCNC2)COC3)c1 (stereo unspecified) | -4.32
c1cnc(N2CCOC3(COCCN(Cc4cc[nH]n4)C3)C2)nc1 (stereo unspecified) | -8.27
COCCC(=O)N1CCN(CC2CC2)c2nc(C)ccc2C1 | 9.16
O=C(O)CN1CCC(F)(F)C2(CCN(c3ccccn3)C2)C1 (stereo unspecified) | 2.21

Source: ChEMBL document CHEMBL3507680, “University of Dundee, Gates Library screen for HepG2 cell viability”
